Reference: the supplement of paper PMC11061612

Legend:
Palbociclib = compound: CC(=O)c1c(C)c2cnc(Nc3ccc(N4CCNCC4)cn3)nc2n(C2CCCC2)c1=O [Palbociclib]; conditions: max 10 µM
Summary of the method: (§1)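 Cancer cell lines were seeded in 1536-well plates in 7.5 μl DMEM/F12 or RPMI with 10% FBS, held 24 hours at 37°C and 5% CO2, then dosed for 72 hours (final DMSO typically 0.2%). Viability was read by CellTiter-Glo 2.0 luminescence and scaled between blank-well and DMSO-well means. The single-agent IC50 comes from dose responses fitted to a two-parameter logistic curve with a non-linear mixed effects model.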

AZD1775 = compound: C=CCn1c(=O)c2cnc(Nc3ccc(N4CCN(C)CC4)cc3)nc2n1-c1cccc(C(C)(C)O)n1 [AZD1775]; conditions: max 3 µM
Summary of the method: as §1

Savolitinib = compound: C[C@@H](c1ccc2nccn2c1)n1nnc2ncc(-c3cnn(C)c3)nc21 [Savolitinib]; conditions: max 1 µM
Summary of the method: as §1

Etoposide = compound: COc1cc([C@@H]2c3cc4c(cc3[C@@H](O[C@@H]3O[C@@H]5CO[C@@H](C)O[C@H]5[C@H](O)[C@H]3O)[C@H]3COC(=O)[C@H]23)OCO4)cc(OC)c1O [Etoposide]; conditions: max 10 µM
Summary of the method: as §1

[1] = compound: O=C(Nc1ccc2[nH]nc(-c3ccncc3)c2c1)[C@@H]1CCN(CC(=O)N2CCN(c3ccc(-c4ncccn4)cc3)CC2)C1; conditions: max 5 µM
Summary of the method: as §1

AZD0156 = compound: CN(C)CCCOc1ccc(-c2ccc3ncc4c(c3c2)n(C2CCOCC2)c(=O)n4C)cn1 [AZD0156]; conditions: max 3 µM
Summary of the method: as §1

Prexasertib = compound: COc1cccc(OCCCN)c1-c1cc(Nc2cnc(C#N)cn2)n[nH]1 [Prexasertib]; conditions: max 1 µM
Summary of the method: as §1

Trametinib = compound: CC(=O)Nc1cccc(-n2c(=O)n(C3CC3)c(=O)c3c(Nc4ccc(I)cc4F)n(C)c(=O)c(C)c32)c1 [Trametinib]; conditions: max 1 µM
Summary of the method: as §1

Doxorubicin = compound: COc1cccc2c1C(=O)c1c(O)c3c(c(O)c1C2=O)C[C@@](O)(C(=O)CO)C[C@@H]3O[C@H]1C[C@H](N)[C@H](O)[C@H](C)O1 [Doxorubicin]; conditions: max 1 µM
Summary of the method: as §1

Lapatinib = compound: CS(=O)(=O)CCNCc1ccc(-c2ccc3ncnc(Nc4ccc(OCc5cccc(F)c5)c(Cl)c4)c3c2)o1 [Lapatinib]; conditions: max 10 µM
Summary of the method: as §1

AZD5991 = compound: Cc1c2c(nn1C)CSCc1cc(n(C)n1)CSc1cc(c3ccccc3c1)OCCCc1c(C(=O)O)n(C)c3c-2c(Cl)ccc13 [AZD5991]; conditions: max 1 µM
Summary of the method: as §1

SRA737 = compound: N#Cc1cnc(Nc2cc(NC[C@H]3CNCCO3)c(C(F)(F)F)cn2)cn1 [SRA737]; conditions: max 10 µM
Summary of the method: as §1

Dasatinib = compound: CC1=C(C(=CC=C1)Cl)NC(=O)C2=CN=C(S2)NC3=CC(=NC(=N3)C)N4CCN(CC4)CCO [Dasatinib]; conditions: max 2 µM
Summary of the method: as §1

Selumetinib = compound: Cn1cnc2c(F)c(Nc3ccc(Br)cc3Cl)c(C(=O)NOCCO)cc21 [Selumetinib]; conditions: max 10 µM
Summary of the method: as §1

Crizotinib = compound: C[C@@H](Oc1cc(-c2cnn(C3CCNCC3)c2)cnc1N)c1c(Cl)ccc(F)c1Cl [Crizotinib]; conditions: max 10 µM
Summary of the method: as §1

AZD7648 = compound: Cc1cc2ncnn2cc1Nc1ncc2c(n1)n(C1CCOCC1)c(=O)n2C [AZD7648]; conditions: max 10 µM
Summary of the method: as §1

Taselisib = compound: Cc1nc(-c2cn3c(n2)-c2ccc(-c4cnn(C(C)(C)C(N)=O)c4)cc2OCC3)n(C(C)C)n1 [Taselisib]; conditions: max 10 µM
Summary of the method: as §1

Gemcitabine = compound: Nc1ccn([C@@H]2O[C@H](CO)[C@@H](O)C2(F)F)c(=O)n1 [Gemcitabine]; conditions: max 0.3 µM
Summary of the method: as §1

Alisertib = compound: COc1cc(Nc2ncc3c(n2)-c2ccc(Cl)cc2C(c2c(F)cccc2OC)=NC3)ccc1C(=O)O [Alisertib]; conditions: max 10 µM
Summary of the method: as §1

AZD1390 = compound: CC(C)n1c(=O)n(C)c2cnc3cc(F)c(-c4ccc(OCCCN5CCCCC5)nc4)cc3c21 [AZD1390]; conditions: max 0.3 µM
Summary of the method: as §1

AZD8186 = compound: C[C@@H](Nc1cc(F)cc(F)c1)c1cc(C(=O)N(C)C)cc2c(=O)cc(N3CCOCC3)oc12 [AZD8186]; conditions: max 10 µM
Summary of the method: as §1

Carboplatin = compound: C1CC(C1)(C(=O)[O-])C(=O)[O-].N.N.[Pt+2] [Carboplatin]; conditions: max 10 µM
Summary of the method: as §1

Gefitinib = compound: COc1cc2ncnc(Nc3ccc(F)c(Cl)c3)c2cc1OCCCN1CCOCC1 [Gefitinib]; conditions: max 10 µM
Summary of the method: as §1

AZD4320 = compound: CN(CC[C@H](CSC1=CC=CC=C1)NC2=C(C=C(C=C2)S(=O)(=O)NC(=O)C3=CC=C(C=C3)N4CCC(CC4)[C@H](C5=CC=CC=C5C6=CC=C(C=C6)Cl)O)S(=O)(=O)C(F)(F)F)CCO [AZD4320]; conditions: max 1 µM
Summary of the method: as §1

5-Fluorouracil = compound: O=c1[nH]cc(F)c(=O)[nH]1 [5-Fluorouracil]; conditions: max 20 µM
Summary of the method: as §1

Venetoclax = compound: CC1(C)CCC(CN2CCN(c3ccc(C(=O)NS(=O)(=O)c4ccc(NCC5CCOCC5)c([N+](=O)[O-])c4)c(Oc4cnc5[nH]ccc5c4)c3)CC2)=C(c2ccc(Cl)cc2)C1 [Venetoclax]; conditions: max 1 µM
Summary of the method: as §1

MK-2206 = compound: NC1(c2ccc(-c3nc4ccn5c(=O)[nH]nc5c4cc3-c3ccccc3)cc2)CCC1 [MK-2206]; conditions: max 10 µM
Summary of the method: as §1

AZD6738 = compound: C[C@@H]1COCCN1C2=NC(=NC(=C2)C3(CC3)[S@](=N)(=O)C)C4=C5C=CNC5=NC=C4 [AZD6738]; conditions: max 10 µM
Summary of the method: as §1

AZD2811 = compound: CCN(CCO)CCCOc1ccc2c(Nc3cc(CC(=O)Nc4cccc(F)c4)[nH]n3)ncnc2c1 [AZD2811]; conditions: max 1 µM
Summary of the method: as §1

Paclitaxel = compound: CC(=O)O[C@H]1C(=O)[C@@]2(C)[C@H]([C@H](OC(=O)c3ccccc3)[C@]3(O)C[C@H](OC(=O)[C@H](O)[C@@H](NC(=O)c4ccccc4)c4ccccc4)C(C)=C1C3(C)C)[C@]1(OC(C)=O)CO[C@@H]1C[C@@H]2O [Paclitaxel]; conditions: max 3 µM
Summary of the method: as §1

AZD5363 = compound: C1CN(CCC1(C(=O)N[C@@H](CCO)C2=CC=C(C=C2)Cl)N)C3=NC=NC4=C3C=CN4 [AZD5363]; conditions: max 10 µM
Summary of the method: as §1

AZD5153 = compound: COc1nnc2ccc(N3CCC(c4ccc(OCCN5CCN(C)C(=O)[C@H]5C)cc4)CC3)nn12 [AZD5153]; conditions: max 1 µM
Summary of the method: as §1

Olaparib = compound: O=C(c1cc(Cc2n[nH]c(=O)c3ccccc23)ccc1F)N1CCN(C(=O)C2CC2)CC1 [Olaparib]; conditions: max 10 µM
Summary of the method: as §1

SG3199 = compound: CC1=CN2[C@@H](C1)C=NC3=CC(=C(C=C3C2=O)OC)OCCCCCOC4=C(C=C5C(=C4)N=C[C@@H]6CC(=CN6C5=O)C)OC [SG3199]; conditions: max 0.001 µM
Summary of the method: as §1

SN-38 = compound: CCc1c2c(nc3ccc(O)cc13)-c1cc3c(c(=O)n1C2)COC(=O)[C@]3(O)CC [SN-38]; conditions: max 0.3 µM
Summary of the method: as §1

Cell Line | IC50, cell viability 72 h (Palbociclib) | IC50, cell viability 72 h (AZD1775) | IC50, cell viability 72 h (Savolitinib) | IC50, cell viability 72 h (Etoposide) | IC50, cell viability 72 h [1] | IC50, cell viability 72 h (AZD0156) | IC50, cell viability 72 h (Prexasertib) | IC50, cell viability 72 h (Trametinib) | IC50, cell viability 72 h (Doxorubicin) | IC50, cell viability 72 h (Lapatinib) | IC50, cell viability 72 h (AZD5991) | IC50, cell viability 72 h (SRA737) | IC50, cell viability 72 h (Dasatinib) | IC50, cell viability 72 h (Selumetinib) | IC50, cell viability 72 h (Crizotinib) | IC50, cell viability 72 h (AZD7648) | IC50, cell viability 72 h (Taselisib) | IC50, cell viability 72 h (Gemcitabine) | IC50, cell viability 72 h (Alisertib) | IC50, cell viability 72 h (AZD1390) | IC50, cell viability 72 h (AZD8186) | IC50, cell viability 72 h (Carboplatin) | IC50, cell viability 72 h (Gefitinib) | IC50, cell viability 72 h (AZD4320) | IC50, cell viability 72 h (5-Fluorouracil) | IC50, cell viability 72 h (Venetoclax) | IC50, cell viability 72 h (MK-2206) | IC50, cell viability 72 h (AZD6738) | IC50, cell viability 72 h (AZD2811) | IC50, cell viability 72 h (Paclitaxel) | IC50, cell viability 72 h (AZD5363) | IC50, cell viability 72 h (AZD5153) | IC50, cell viability 72 h (Olaparib) | IC50, cell viability 72 h (SG3199) | IC50, cell viability 72 h (SN-38)
NCI-H441 (Lung Adenocarcinoma) | > 10000 nM | > 3000 nM | > 1000 nM | > 10000 nM | > 5000 nM | > 3000 nM | 666 nM | > 1000 nM | > 1000 nM | > 10000 nM | > 1000 nM | > 10000 nM | > 2000 nM | > 10000 nM | > 10000 nM | > 10000 nM | > 10000 nM | 299 nM | > 10000 nM | > 300 nM | > 10000 nM | > 10000 nM | > 10000 nM | > 1000 nM | > 20000 nM | > 1000 nM | > 10000 nM | > 10000 nM | > 1000 nM | 2240 nM | > 10000 nM | > 1000 nM | > 10000 nM | > 1 nM | 112 nM
NCI-H1651 (Lung Adenocarcinoma) | > 10000 nM | 779 nM | > 1000 nM | 6010 nM | > 5000 nM | > 3000 nM | 83.1 nM | > 1000 nM | 788 nM | > 10000 nM | > 1000 nM | > 10000 nM | > 2000 nM | > 10000 nM | > 10000 nM | > 10000 nM | > 10000 nM | > 300 nM | > 10000 nM | > 300 nM | > 10000 nM | > 10000 nM | > 10000 nM | > 1000 nM | > 20000 nM | > 1000 nM | > 10000 nM | > 10000 nM | > 1000 nM | 21.7 nM | > 10000 nM | > 1000 nM | > 10000 nM | > 1 nM | 22.1 nM
NCI-H1703 (Squamous Cell Lung Carcinoma) | 9730 nM | 222 nM | > 1000 nM | 1640 nM | > 5000 nM | > 3000 nM | 8.59 nM | > 1000 nM | 142 nM | > 10000 nM | 393 nM | 1170 nM | 47.8 nM | > 10000 nM | 8010 nM | > 10000 nM | 625 nM | 4.23 nM | 6210 nM | > 300 nM | 4060 nM | > 10000 nM | > 10000 nM | > 1000 nM | > 20000 nM | > 1000 nM | 2830 nM | 917 nM | > 1000 nM | 5.86 nM | 6660 nM | 400 nM | > 10000 nM | > 1 nM | 36.7 nM
NCI-H2087 (Lung Adenocarcinoma) | > 10000 nM | > 3000 nM | > 1000 nM | > 10000 nM | 2200 nM | > 3000 nM | 96.2 nM | 350 nM | > 1000 nM | > 10000 nM | > 1000 nM | > 10000 nM | > 2000 nM | 6120 nM | > 10000 nM | > 10000 nM | > 10000 nM | 255 nM | > 10000 nM | > 300 nM | > 10000 nM | > 10000 nM | > 10000 nM | > 1000 nM | > 20000 nM | > 1000 nM | > 10000 nM | > 10000 nM | > 1000 nM | 225 nM | > 10000 nM | > 1000 nM | > 10000 nM | > 1 nM | 18.8 nM
PEO1 (Ovarian Carcinoma) | > 10000 nM | 1540 nM | > 1000 nM | > 10000 nM | > 5000 nM | > 3000 nM | > 1000 nM | > 1000 nM | > 1000 nM | > 10000 nM | > 1000 nM | > 10000 nM | > 2000 nM | > 10000 nM | > 10000 nM | > 10000 nM | 8190 nM | > 300 nM | > 10000 nM | > 300 nM | > 10000 nM | > 10000 nM | > 10000 nM | > 1000 nM | > 20000 nM | > 1000 nM | > 10000 nM | > 10000 nM | > 1000 nM | 52.9 nM | > 10000 nM | > 1000 nM | > 10000 nM | > 1 nM | 57.3 nM
